Columns and labels:
[1] = Phenytoin precipitation inhibition in PBS containing dissolved polymer; format: physicochemical; conditions: PBS pH 6.5, 37° C., 500 μg/mL if all dissolved
Experimental: Phenyloin was dissolved in methanol at a concentration of 18 mg/mL. The polymers were dissolved in PBS (20 mM sodium phosphate (Na2HPO4), 47 mM potassium phosphate (KH2PO4), 87 mM NaCl, and 0.2 mM KCl, adjusted to pH 6.5 with NaOH) at a concentration of 1.5 mg/mL. […] HPLC was performed using a ZORBAX® RX-C18 column (4.6×75 mm, 3.5 μm, Agilent Technologies) and a mobile phase comprising 0.2% H3PO4 in water, at a flow rate of 1.0 mL/min; 10 μL of each solution was injected. […] HPMCAS-K(3) and HPMCAS-LG have similar degrees of succinate substitution ([…], respectively (see Table 7)), but greatly different degrees of acetate substitution (1.41 and 0.47, respectively).

[2] = Microcentrifuge dissolution of 25 wt % phenytoin spray-dried dispersions in MFDS; format: physicochemical; conditions: dissolved phenytoin; SDD or bulk in MFDS pH 6.5, 37° C.
Description: In another separate embodiment, compositions containing the HPMCAS polymers are concentration enhancing. The term “concentration enhancing” means that the polymer is present in a sufficient amount in the composition so as to improve, or increase, the concentration of dissolved active agent in an aqueous use environment relative to a control composition free from the polymer. As used herein, a “use environment” can be either the in vivo environment of the gastrointestinal tract, subdermal, intranasal, buccal, intrathecal, ocular, intraaural, subcutaneous spaces, vaginal tract, arterial and venous blood vessels, pulmonary tract or intramuscular tissue of an animal, such as a mammal and particularly a human, or the in vitro environment of a test solution, such as phosphate buffered saline (PBS), simulated intestinal buffer without enzymes (SIN), a Model Fasted Duodenal (MFD) solution, or a solution to model the fed state. Concentration enhancement may be determined through either in vitro dissolution tests or through in vivo tests. It has been determined that enhanced active agent concentrations in in vitro dissolution tests in such in vitro test solutions provide good indicators of in vivo performance and bioavailability. An appropriate PBS solution is an aqueous solution comprising 20 mM sodium phosphate (Na2HPO4), 47 mM potassium phosphate (KH2PO4), 87 mM NaCl, and 0.2 mM KCl, adjusted to pH 6.5 with NaOH. An appropriate SIN solution is 50 mM KH2PO4 adjusted to pH 7.4. […] In particular, a composition may be dissolution-tested by adding it to an in vitro test solution and agitating to promote dissolution, or by performing a membrane-permeation test as described in U.S. Published Patent Application No. 2008/0262107, which is incorporated herein by reference. Spray-dried dispersions (SDDs) comprising 25 wt % phenyloin in HPMCAS-K(3), HPMCAS-K(1), HPMCAS-HG, and HPMCAS-LG were prepared as described in section VIII. […] Dissolved concentrations were measured by HPLC.

C1200 ([1]; dissolved phenytoin at 1200 min): 80 µg/mL | AUC90 ([1]; dissolved phenytoin, 0-90 min): 6,500 min * μg/mL | Cmax90 ([1]; dissolved phenytoin, maximum in first 90 min): 120 µg/mL | AUC90 [2]: 3,500 min * μg/mL | C1200 [2]: 40 µg/mL | Cmax90 [2]: 40 µg/mL
SMILES: O=C1NC(=O)C(c2ccccc2)(c2ccccc2)N1 [Phenytoin bulk, Phenytoin]

From patent publication US9040033B2, “Hydroxypropyl methyl cellulose acetate succinate with enhanced acetate and succinate substitution” (Dow Global Technologies LLC, priority 2010, dated 2015)
